{
  "source": "patent US11779600B2",
  "about": "“Methods of treating or preventing alzheimer's disease and associated conditions” (CEDARS-SINAI MEDICAL CENTER, priority 2016, dated 2023)",
  "key": {"OPN": {"system": "OPN", "test": "OPN expression in primary bone marrow-derived macrophages (qICC, ELISA)", "type": "cell-based, mouse", "conditions": "for increase in OPN production/expression (qICC): without Aβ, vs untreated MΦ^BM (FIG. 14D)", "procedure": "For MΦ^BM cells, the cells in each well were lifted by 2 mM EDTA-PBS, collected in tubes, and centrifuged. Cell pellets were lysed and re-suspended in a cocktail of RIPA buffer supplemented with 1% protease inhibitors (Thermo Scientific), and stored at −80° C. until use.\nTo test amyloid-β phagocytosis by macrophage, in repeated experiments monocytes were isolated from the bone marrow of wild-type mice (n=18 mice) and differentiated into macro-phage by 7-day cultivation in complete RPMI-1640 medium (#21870; Life Technologies) with 10% serum and 20 ng/ml MCSF (#315-02; PeproTech). Bone marrow-derived macrophages (MΦBM) were generated from femurs and tibiae cultured for 6-7 days in complete RPMI 1640 medium (Life Technologies) with 10% FBS, 100 U/ml penicillin, 100 μg/ml streptomycin, 2 mM L-glutamine and 20 ng/ml MCSF (PeproTech). Primary cultures of macrophage were then plated at 1.2×10^5 cells per well (3-4 wells for each condition) in 24-well tissue-culture plates on glass cover-slips overnight. Next, macrophages were either treated with 30 μg/ml GA (Copaxone®; TEVA Neuroscience), Brefeldin A (BFA; Sigma, 1X), or 10 μM Minocycline (Sigma) for the duration of 1, 3, or 24 h, or not treated (control group). Before addition of fibrillar amyloid-β1-42, the cells were chilled in a 4° C. ice bath for 5 min; immediately after addition of the preformed fibrillar amyloid-β1-42 (100 nM), the plates were centrifuged at 515g in 25° C. followed by incubation at 37° C. for 30 or 60 min. The cells were then rinsed with amyloid-β-free medium to remove non-incorporated amyloid-β and later washed twice with PBS. Methanol (99.8%) at −20° C. for 20 min or 4% paraformaldehyde at room temperature for 12 min was used for fixation of the cells followed by repeated washes with PBS. For immunostaining, the cells were first stained using the mouse anti-human amyloid-β mAb clone 6E10 (1:100; SIG-39320; Covance), rat anti-CD68 mAb clone FA-11 (1:100; ab53444; Abcam), rat anti-CD36 mAb clone MF3 (1:200; ab80080; Abcam), rat anti-CD204 scavenger receptor type I/II (SCARA1) mAb (1:100; MCA1322; AbD Serotec), rabbit anti-CD163 pAb (1:100; orb13303; Biorbyt), and goat anti-MMP-9 pAb (1:100; AF909; R&D systems). Secondary polyclonal antibodies included donkey anti-mouse, anti-rat, anti-rabbit, and anti-goat conjugated with Cy2, Cy3 or Cy5 (1:200; Jackson ImmunoResearch Laboratories). The cells were mounted using ProLong® Gold with DAPI (Molecular Probes, Life Technologies). Several fields (minimum n=5 randomly selected per group) were obtained from each well using a Carl Zeiss Axio Imager Z1 ApoTome-equipped microscope (an average of 120 cells in each field). Images were obtained using the same exposure time in each occasion. The fluorescent signal and its total area were determined and quantified by the conversion of individual images to greyscale and standardizing to baseline using histogram-based thresholds with NIH ImageJ software. The ‘mean area per cell’ was a result of a numerical average of the individual cell's immunoreactive area per field. The ‘area/cell’ measures the total fluorescent signal (area) divided by the total number of cells (DAPI count) of the same field (image). For all experiments, the investigators were blinded to the treatment condition.\nTo investigate the impact of GA on OPN expression in macrophages, a series of in vitro studies using primary MΦ^BM was performed. BM was isolated from young WT donor mice, differentiated into mature macrophages, pretreated overnight with GA ([…]; GA-MΦ^BM) and exposed to pre-formed Aβ1-42 fibrils. […] Since MΦ^BM constitutively express and secrete OPN into the extracellular matrix, OPN production by inhibiting secretion with Brefeldin A (BFA) pretreatment was assessed (FIG. 14C). Indeed, newly generated OPN was trapped by BFA, increasing its intracellular accumulation. […] GA further elevated OPN production in BFA-pretreated MΦ^BM (FIG. 14C). […]"}, "MMP-9": {"system": "MMP-9", "test": "MMP-9 expression in macrophages by quantitative ICC", "type": "cell-based, mouse", "conditions": "quantitative ICC (FIG. 16F-16G)", "procedure": "To test amyloid-β phagocytosis by macrophage, in repeated experiments monocytes were isolated from the bone marrow of wild-type mice (n=18 mice) and differentiated into macro-phage by 7-day cultivation in complete RPMI-1640 medium (#21870; Life Technologies) with 10% serum and 20 ng/ml MCSF (#315-02; PeproTech). Bone marrow-derived macrophages (MΦBM) were generated from femurs and tibiae cultured for 6-7 days in complete RPMI 1640 medium (Life Technologies) with 10% FBS, 100 U/ml penicillin, 100 μg/ml streptomycin, 2 mM L-glutamine and 20 ng/ml MCSF (PeproTech). Primary cultures of macrophage were then plated at 1.2×10^5 cells per well (3-4 wells for each condition) in 24-well tissue-culture plates on glass cover-slips overnight. Next, macrophages were either treated with 30 μg/ml GA (Copaxone®; TEVA Neuroscience), Brefeldin A (BFA; Sigma, 1X), or 10 μM Minocycline (Sigma) for the duration of 1, 3, or 24 h, or not treated (control group). […] The fluorescent signal and its total area were determined and quantified by the conversion of individual images to greyscale and standardizing to baseline using histogram-based thresholds with NIH ImageJ software. […]\nNext, MMP-9 expression and OPN proteolytic fragments were analyzed. […]"}, "ADtg mice": {"system": "ADtg mice", "test": "Vascular cerebral amyloid angiopathy (CAA) score in ADtg mice", "type": "in vivo, mouse", "conditions": "ADtg mice (FIG. 12)", "procedure": "ADtg mice (10 months old) received subcutaneous injections of GA [also known as Cop-1 and Copaxone®; 100 μg in phosphate-buffered saline (PBS)] or PBS alone (control group) twice a week for 1 week and then once a week for 8 weeks. For evaluation of innate immune infiltration to the brain by flow cytometry, 10-month-old ADtg mice received subcutaneous injections of GA (100 mg in PBS) or PBS alone twice a week for 1 week and then once a week for 3 weeks. At the end of the study, all mice were anaesthetized and then perfused with ice-cold PBS with 0.5 mM EDTA, after which their organs were collected and analyzed or fixed in 2.5% paraformaldehyde (Sigma-Aldrich), and cryoprotected with 30% sucrose for further histological analysis.\nFollowing secondary antibody staining, the brain sections were stained with thioflavin-S(Thio-S, 1% w/v in 70% ethanol) (Sigma-Aldrich) for 10 min at room temperature, washed three times in 70% ethanol, and then washed once in distilled water, for 1 min each."}},
  "data": [
    {"substance": "glatiramer acetate [GA]", "values": [
      {"measurement": "increase in OPN in GA-treated MΦ", "setting": "OPN; FIG. 5D", "result": 2, "unit": "fold"},
      {"measurement": "increase of OPN expression in MΦ^BM", "setting": "OPN; GA pretreated, 100 nM fibrillar Aβ1-42 for 30 min, qICC and ELISA", "result": "2.3-2.7 fold"},
      {"measurement": "increased OPN levels in cell lysates (ELISA)", "setting": "OPN; with BFA (FIG. 14E)", "result": 1.4, "unit": "fold"},
      {"measurement": "increase in OPN production/expression (qICC)", "setting": "OPN; with BFA, GA overnight 30 µg/ml", "result": 1.6, "unit": "fold"},
      {"measurement": "increased OPN levels in cell lysates (ELISA)", "setting": "OPN; without BFA (FIG. 14E)", "result": 2.3, "unit": "fold"},
      {"measurement": "increase in OPN production/expression (qICC)", "setting": "OPN; without BFA, GA overnight", "result": 2.5, "unit": "fold"},
      {"measurement": "increase of MMP-9 expression in macrophages", "setting": "MMP-9", "result": 2.7, "unit": "fold"},
      {"measurement": "vascular cerebral amyloid angiopathy (CAA) burden", "setting": "ADtg mice", "result": "decreases"}
    ]}
  ]
}
